How the values were obtained:
subjects with d-IBS = experiment: Adequate relief of IBS symptoms and bloating (weekly yes/no questions), rifaximin BID study in d-IBS; assay type: in vivo, human; conditions: for Percentage of Subjects with Number of Weeks with Adequate Relief of Bloating Symptoms / Percentage of Subjects with Number of Weeks with Adequate Relief of IBS Symptoms: ITT; for Adequate Relief of Bloating: Success / Adequate Relief of IBS symptoms: Success: end of the Treatment Phase; for Percentage of Subjects with Adequate Relief of Bloating Symptom / Percentage of Subjects with Adequate Relief of IBS Symptoms: RFX 550 mg BID 14 days, ITT N = 191; for Percentage of Subjects with Adequate Relief of Bloating Symptom: at least two of the final three weeks of treatment phase; for Percentage of Subjects with Adequate Relief of IBS Symptoms: at least two of the final three weeks of treatment phase (Weeks 1 to 4); for Adequate Relief of Bloating, Post Treatment: Failures / Adequate Relief of Bloating, Post Treatment: Success / Adequate Relief of Bloating, Post Treatment: Failure: RFX 550 2w (N = 54); for Patients with adequate relief of bloating / Patients with adequate relief of global IBS symptoms: rifaximin 550 mg twice daily 14 days
Protocol: This example relates to a study of rifaximin in subjects with d-IBS. […] There were two measures of efficacy assessed. Subjects were questioned on the relief of overall IBS symptoms and bloating. […] The analyses defined success as a “yes” response to questions regarding adequate relief.
All subpopulations in the study responded to therapy. Baseline severity was determined using 7-point Lickert scales during screening for Abdominal Pain/Discomfort and Bloating, and the number, type (normal, hard, loose) and urgency of bowel movements.
Duration of effect was assessed in a follow-up period. Subjects that responded in the 4 week treatment period were followed for an additional 3 months.
The effect of treatment on the percentage of subjects who reported adequate relief of IBS and bloating symptoms for at least two of the final three weeks during the treatment phase (Weeks 1 to 4) is shown in Tables 5-7 and FIGS. 4-6 below.
The study assessed the effect over 12 weeks of follow-up on long-term adequate relief. Subjects who had adequate relief by Week 4 and remained symptom-free at Week 5 were followed during the post-treatment phase and shown in FIGS. 1 and 2. Superiority to placebo was maintained during the 12 weeks post-treatment follow-up. Results for IBS symptoms were RFX 550 mg BID 62.3% versus placebo 49.2%, and RFX 550 mg BID 59.3% versus 50.9% for placebo for the symptom of bloating through week 16. In assessing the follow-up data, there was statistical significance (p<0.05) of bloating and IBS symptoms for RFX 550 mg BID versus placebo.
Two measures of efficacy were assessed independently. The first was the proportion of subjects who provided a ‘yes’ response to the weekly SGA question: “In the past 7 days, have you had adequate relief of your IBS symptoms? (yes/no)”. The second endpoint was the proportion of subjects who provide a ‘yes’ response to the weekly individual symptom question: “In the past 7 days, have you had adequate relief of your symptom of bloating? (yes/no)”. Durability was based on the proportion of subjects that had adequate relief over the entire treatment phase.
It is reported herein that the severity of baseline symptoms of abdominal pain and bloating influenced the response to rifaximin treatment. The co-primary endpoints in this analysis assessed weekly yes/no responses to questions regarding adequate relief of global IBS symptoms and IBS-associated bloating. Severity of baseline IBS symptoms was evaluated as a potential confounder of clinical response and was categorized as mild/moderate or severe based on a mean score of ≦4 vs. >4 (on a 7-point scale) for bloating and abdominal pain.
The Weekly yes/no responses to questions regarding adequate relief of global IBS symptoms and IBS-associated bloating were assessed. Clinical response was defined as adequate relief for 2 of the final 3 treatment weeks (wk 2, 3, or 4). Severity of baseline IBS symptoms was evaluated as a potential confounder of clinical response and was categorized as mild/moderate or severe based on a mean score of ≦4 versus >4 (on a 7-point scale (0=not bothersome; 6=very bothersome)) for bloating and abdominal pain.

[1] = system: C. difficile infection (CDI); experiment: CDI trial: continuing illnesses; assay type: in vivo, human
[2] = patients with mild/moderate abdominal pain at baseline
[3] = patients with mild/moderate bloating at baseline
[4] = Rifaximin N = 117, Vancomycin N = 115

Structure (SMILES): CO[C@H]1/C=C/O[C@@]2(C)Oc3c(C)c(O)c4c(O)c(c5c(nc6cc(C)ccn65)c4c3C2=O)NC(=O)/C(C)=C\C=C\[C@H](C)[C@H](O)[C@@H](C)[C@@H](O)[C@@H](C)[C@H](OC(C)=O)[C@@H]1C [Rifaximin, (2S,16Z,18E,20S,21S,22R, 23R,24R,25S,26S,27S,28E)-5,6,21,23,25 Pentahydroxy-27-methoxy-2,4,11,16,20,22,24,26-octamethyl-2,7-(epoxypentadeca-(1,11,13)trienimino) benzofuro (4,5-e) pyrido(1,2,-a) benzimidazole-1,15(2H)-dione,25-acetate]
- Percentage of Subjects with Number of Weeks with Adequate Relief of Bloating Symptoms (subjects with d-IBS; 0 weeks, RFX 550 mg BID): 35%
- Percentage of Subjects with Number of Weeks with Adequate Relief of IBS Symptoms (subjects with d-IBS; 0 weeks, RFX 550 mg BID): 33%
- Percentage of Subjects with Number of Weeks with Adequate Relief of Bloating Symptoms (subjects with d-IBS; 1 week, RFX 550 mg BID): 14%
- Percentage of Subjects with Number of Weeks with Adequate Relief of IBS Symptoms (subjects with d-IBS; 1 week, RFX 550 mg BID): 11%
- Percentage of Subjects with Number of Weeks with Adequate Relief of Bloating Symptoms (subjects with d-IBS; 2 weeks, RFX 550 mg BID): 15%
- Percentage of Subjects with Number of Weeks with Adequate Relief of IBS Symptoms (subjects with d-IBS; 2 weeks, RFX 550 mg BID): 15%
- Percentage of Subjects with Number of Weeks with Adequate Relief of Bloating Symptoms (subjects with d-IBS; 3 weeks, RFX 550 mg BID): 20%
- Percentage of Subjects with Number of Weeks with Adequate Relief of IBS Symptoms (subjects with d-IBS; 3 weeks, RFX 550 mg BID): 23%
- Percentage of Subjects with Number of Weeks with Adequate Relief of Bloating Symptoms (subjects with d-IBS; 4 weeks, RFX 550 mg BID): 14%
- Percentage of Subjects with Number of Weeks with Adequate Relief of IBS Symptoms (subjects with d-IBS; 4 weeks, RFX 550 mg BID): 16%
- Treatment effect, Bloating (subjects with d-IBS; Age <65): 6.8%
- Treatment effect, IBS Sx (subjects with d-IBS; Age <65): 6.9%
- Treatment effect, Bloating (subjects with d-IBS; Age ≧65): 3.2%
- Treatment effect, IBS Sx (subjects with d-IBS; Age ≧65): 19.1%
- Treatment effect, Bloating (subjects with d-IBS; Diabetes History N): 7.4%
- Treatment effect, IBS Sx (subjects with d-IBS; Diabetes History N): 9.5%
- Treatment effect, Bloating (subjects with d-IBS; Diabetes History Y): −5.6%
- Treatment effect, IBS Sx (subjects with d-IBS; Diabetes History Y): −12.7%
- Treatment effect, Bloating (subjects with d-IBS; Disease Duration 10-20 y): 11.7%
- Treatment effect, IBS Sx (subjects with d-IBS; Disease Duration 10-20 y): 20.1%
- Treatment effect, Bloating (subjects with d-IBS; Disease Duration >20 y): 35.1%
- Treatment effect, IBS Sx (subjects with d-IBS; Disease Duration >20 y): 46.6%
- Treatment effect, Bloating (subjects with d-IBS; Disease Duration ≦10 y): 2.8%
- Treatment effect, IBS Sx (subjects with d-IBS; Disease Duration ≦10 y): 1.8%
- Adequate Relief of Bloating: Failure (subjects with d-IBS; Female, RFX 275 2w): 52 (64.2%)
- Adequate Relief of IBS symptoms: Failure (subjects with d-IBS; Female, RFX 275 2w): 46 (56.8%)
- Adequate Relief of Bloating: Success (subjects with d-IBS; Female, RFX 275 2w): 29 (35.8%)
- Adequate Relief of IBS symptoms: Success (subjects with d-IBS; Female, RFX 275 2w): 35 (43.2%)
- Adequate Relief of Bloating: Failure (subjects with d-IBS; Female, RFX 550 2w): 74 (54.0%)
- Adequate Relief of IBS symptoms: Failure (subjects with d-IBS; Female, RFX 550 2w): 66 (48.2%)
- Adequate Relief of Bloating: Success (subjects with d-IBS; Female, RFX 550 2w): 63 (46.0%)
- Adequate Relief of IBS symptoms: Success (subjects with d-IBS; Female, RFX 550 2w): 71 (51.8%)
- Adequate Relief of Bloating: Failure (subjects with d-IBS; Female, RFX 550 4w): 44 (57.9%)
- Adequate Relief of IBS symptoms: Failure (subjects with d-IBS; Female, RFX 550 4w): 42 (55.3%)
- Adequate Relief of Bloating: Success (subjects with d-IBS; Female, RFX 550 4w): 32 (42.1%)
- Adequate Relief of IBS symptoms: Success (subjects with d-IBS; Female, RFX 550 4w): 34 (44.7%)
- Adequate Relief of Bloating: Failure (subjects with d-IBS; Female, RFX 1100 2w): 45 (61.6%)
- Adequate Relief of IBS symptoms: Failure (subjects with d-IBS; Female, RFX 1100 2w): 44 (60.3%)
- Adequate Relief of Bloating: Success (subjects with d-IBS; Female, RFX 1100 2w): 28 (38.4%)
- Adequate Relief of IBS symptoms: Success (subjects with d-IBS; Female, RFX 1100 2w): 29 (39.7%)
- Treatment effect, Bloating (subjects with d-IBS; Gender F): 3.9%
- Treatment effect, IBS Sx (subjects with d-IBS; Gender F): 3.5%
- Treatment effect, Bloating (subjects with d-IBS; Gender M): 13.6%
- Treatment effect, IBS Sx (subjects with d-IBS; Gender M): 21%
- Adequate Relief of Bloating: Failure (subjects with d-IBS; Male, RFX 275 2w): 8 (57.1%)
- Adequate Relief of IBS symptoms: Failure (subjects with d-IBS; Male, RFX 275 2w): 9 (64.3%)
- Adequate Relief of Bloating: Success (subjects with d-IBS; Male, RFX 275 2w): 6 (42.9%)
- Adequate Relief of IBS symptoms: Success (subjects with d-IBS; Male, RFX 275 2w): 5 (35.7%)
- Adequate Relief of Bloating: Failure (subjects with d-IBS; Male, RFX 550 2w): 29 (53.7%)
- Adequate Relief of IBS symptoms: Failure (subjects with d-IBS; Male, RFX 550 2w): 25 (46.3%)
- Adequate Relief of Bloating: Success (subjects with d-IBS; Male, RFX 550 2w): 25 (46.3%)
- Adequate Relief of IBS symptoms: Success (subjects with d-IBS; Male, RFX 550 2w): 29 (53.7%)
- Adequate Relief of Bloating: Failure (subjects with d-IBS; Male, RFX 550 4w): 16 (72.7%)
- Adequate Relief of IBS symptoms: Failure (subjects with d-IBS; Male, RFX 550 4w): 15 (68.2%)
- Adequate Relief of Bloating: Success (subjects with d-IBS; Male, RFX 550 4w): 6 (27.3%)
- Adequate Relief of IBS symptoms: Success (subjects with d-IBS; Male, RFX 550 4w): 7 (31.8%)
- Adequate Relief of Bloating: Failure (subjects with d-IBS; Male, RFX 1100 2w): 16 (61.5%)
- Adequate Relief of IBS symptoms: Failure (subjects with d-IBS; Male, RFX 1100 2w): 14 (53.8%)
- Adequate Relief of Bloating: Success (subjects with d-IBS; Male, RFX 1100 2w): 10 (38.5%)
- Adequate Relief of IBS symptoms: Success (subjects with d-IBS; Male, RFX 1100 2w): 12 (46.2%)
- Percentage of Subjects with Adequate Relief of Bloating Symptom (subjects with d-IBS): 46%
- Percentage of Subjects with Adequate Relief of IBS Symptoms (subjects with d-IBS): 52%
- Percentage of Subjects with Adequate Relief of IBS Symptoms (subjects with d-IBS; listed as RFX): 52.4%
- Percentage of Subjects with Adequate Relief of Bloating Symptom (subjects with d-IBS; listed as RFX): 46.1%
- Adequate Relief of Bloating, Post Treatment: Failures (subjects with d-IBS; Week 6): (9.3%)
- Adequate Relief of Bloating, Post Treatment: Success (subjects with d-IBS; Week 6): (90.7%)
- Adequate Relief of Bloating, Post Treatment: Failures (subjects with d-IBS; Week 7): (16.7%)
- Adequate Relief of Bloating, Post Treatment: Success (subjects with d-IBS; Week 7): (83.3%)
- Adequate Relief of Bloating, Post Treatment: Failures (subjects with d-IBS; Week 8): (13.0%)
- Adequate Relief of Bloating, Post Treatment: Success (subjects with d-IBS; Week 8): (87.0%)
- Adequate Relief of Bloating, Post Treatment: Failures (subjects with d-IBS; Week 9): (27.8%)
- Adequate Relief of Bloating, Post Treatment: Success (subjects with d-IBS; Week 9): (72.2%)
- Adequate Relief of Bloating, Post Treatment: Failures (subjects with d-IBS; Week 10): (27.8%)
- Adequate Relief of Bloating, Post Treatment: Success (subjects with d-IBS; Week 10): (72.2%)
- Adequate Relief of Bloating, Post Treatment: Failures (subjects with d-IBS; Week 11): (35.2%)
- Adequate Relief of Bloating, Post Treatment: Success (subjects with d-IBS; Week 11): (64.8%)
- Adequate Relief of Bloating, Post Treatment: Failure (subjects with d-IBS; Week 12): (33.3%)
- Adequate Relief of Bloating, Post Treatment: Success (subjects with d-IBS; Week 12): (66.7%)
- Adequate Relief of Bloating, Post Treatment: Failure (subjects with d-IBS; Week 13): (38.9%)
- Adequate Relief of Bloating, Post Treatment: Success (subjects with d-IBS; Week 13): (61.1%)
- Adequate Relief of Bloating, Post Treatment: Failure (subjects with d-IBS; Week 14): (37.0%)
- Adequate Relief of Bloating, Post Treatment: Success (subjects with d-IBS; Week 14): (63.0%)
- Adequate Relief of Bloating, Post Treatment: Failure (subjects with d-IBS; Week 15): (42.6%)
- Adequate Relief of Bloating, Post Treatment: Success (subjects with d-IBS; Week 15): (57.4%)
- Adequate Relief of Bloating, Post Treatment: Failure (subjects with d-IBS; Week 16): (40.7%)
- Treatment effect, IBS Sx (subjects with d-IBS; aIBS): 31.4%*, 31.4%
- Treatment effect, Bloating (subjects with d-IBS; dIBS only): 4.5%
- Treatment effect, IBS Sx (subjects with d-IBS; dIBS only): 6.3%
- Patients with adequate relief of bloating (subjects with d-IBS; [2]): 44%
- Patients with adequate relief of global IBS symptoms (subjects with d-IBS; [2]): 50%
- Patients with adequate relief of bloating (subjects with d-IBS; [3]): 47%
- Patients with adequate relief of global IBS symptoms (subjects with d-IBS; [3]): 56%
- Long-term adequate relief of IBS symptoms, post-treatment follow-up (subjects with d-IBS; through week 16, RFX 550 mg BID, subjects with adequate relief by Week 4): 62.3%
- Continuing Illness: No, number of subjects [1, 4]: 90
- Continuing Illness: No, percent of subjects [1, 4]: (77%)
- Continuing Illness: Yes, number of subjects [1, 4]: 27
- Continuing Illness: Yes, percent of subjects [1, 4]: (23%)
- Continuing Illness: Treatment Difference ([1]; Rifaximin vs Vancomycin): −9.2%
